molecular target: T1, SMYD2 (Homo sapiens, UniProt Q9NRG4); experiment: SMYD2 Biochemical Assay (3H-SAM, biotinylated peptide substrate, Flashplate); conditions: IC50 values are an average of n = 1 to n = 50; read-out: SMYD2 Biochem IC50 (μM)*
T1 construct: Full length SMYD2 (NP 064582.2) was cloned; His6 (N, cleaved yes); FLAG (N); made in house; host or cells: Sf9 insect cells
Outline: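 Full-length His/FLAG-tagged SMYD2 expressed in Sf9 cells with tag cleaved, 1.5 nM, pre-incubated 30 min at room temperature with compound, then 10 nM 3H-SAM and 60 nM biotinylated peptide added. Buffer 20 mM Bicine pH 7.6, 1 mM TCEP, 0.005% BSG, 0.002% Tween20, 2% DMSO. Stopped with 600 uM cold SAM; 3H-peptide captured on streptavidin Flashplate; IC50 by curve fit.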

T1 sequence (Q9NRG4 whole entry): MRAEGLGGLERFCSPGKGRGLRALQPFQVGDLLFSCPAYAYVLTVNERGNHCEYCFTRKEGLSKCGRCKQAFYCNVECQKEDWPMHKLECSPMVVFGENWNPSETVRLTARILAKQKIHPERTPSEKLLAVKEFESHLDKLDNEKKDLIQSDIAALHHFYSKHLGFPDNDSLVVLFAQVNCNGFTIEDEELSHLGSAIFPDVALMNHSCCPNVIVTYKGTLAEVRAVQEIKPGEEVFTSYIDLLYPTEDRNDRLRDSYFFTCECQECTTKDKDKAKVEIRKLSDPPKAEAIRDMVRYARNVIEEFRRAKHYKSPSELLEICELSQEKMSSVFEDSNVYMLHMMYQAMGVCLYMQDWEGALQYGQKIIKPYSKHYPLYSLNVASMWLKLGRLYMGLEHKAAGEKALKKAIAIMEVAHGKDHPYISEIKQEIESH

`C[C@@H]1CN(CC(=O)N2CCOCC2)C[C@H]1NC(=O)c1cc(C2CC2)on1` (racemic) [compound 271, (±)-trans-5-cyclopropyl-N-[4-methyl-1-[2-(morpholin-4-yl)-2-oxoethyl]pyrrolidin-3-yl]-1,2-oxazole-3-carboxamide] and `C[C@@H]1CN(CC(=O)N2CCCC2)C[C@H]1NC(=O)c1cc(C2CC2)on1` (racemic) [compound 293, (±)-trans-5-cyclopropyl-N-{4-methyl-1-[2-oxo-2-(pyrrolidin-1-yl)ethyl]pyrrolidin-3-yl}-1,2-oxazole-3-carboxamide] cannot be ordered by IC50: over 50 µM for the first, over 50 µM for the second.

`C[C@H]1CN(c2ccccc2)C[C@H]1NC(=O)c1cc(C2CC2)on1` (racemic) [compound 272, (±)-cis-5-cyclopropyl-N-[4-methyl-1-phenylpyrrolidin-3-yl]-1,2-oxazole-3-carboxamide] and `C[C@@H]1CN(c2ccccc2)C[C@H]1NC(=O)c1cc(C2CC2)on1` (racemic) [compound 296, (±)-trans-5-cyclopropyl-N-(4-methyl-1-phenyl-pyrrolidin-3-yl)-1,2-oxazole-3-carboxamide] cannot be ordered by IC50: over 50 µM for the first, over 50 µM for the second.

`C[C@H]1CN(c2ccc(Cl)cc2)C[C@H]1NC(=O)c1cc(C2CC2)on1` (racemic) [compound 273, (±)-cis[N-[1-(4-chloro-phenyl)-4-methyl-pyrrolidin-3-yl]-5-cyclopropyl-1,2-oxazole-3-carboxamide] and `C[C@@H]1CN(c2ccc(Cl)cc2)C[C@H]1NC(=O)c1cc(C2CC2)on1` (racemic) [compound 298, (±)-trans-N-[1-(4-chloro-phenyl)-4-methyl-pyrrolidin-3-yl]-5-cyclopropyl-1,2-oxazole-3-carboxamide] cannot be ordered by IC50: over 50 µM for the first, over 50 µM for the second.

`C[C@H]1CN(Cc2ccc3c(c2)OCCO3)C[C@H]1NC(=O)c1cc(C2CC2)on1` (racemic) [compound 274, (±)-cis-5-cyclopropyl-N-[1-(2,3-dihydro-1,4-benzodioxin-6-ylmethyl)-4-methylpyrrolidin-3-yl]-1,2-oxazole-3-carboxamide] and `C[C@H]1CN(Cc2ccc3c(c2)OCCN3C)C[C@H]1NC(=O)c1cc(C2CC2)on1` (racemic) [compound 289, (±)-cis-5-cyclopropyl-N-{4-methyl-1-[(4-methyl-3,4-dihydro-2H-1,4-benzoxazin-7-yl)methyl]pyrrolidin-3-yl}-1,2-oxazole-3-carboxamide] are within 1.5-fold of each other in IC50: 6.3 µM for the first, 6.08 µM for the second.

Going from `C[C@H]1CN(Cc2ccccc2Cl)C[C@H]1NC(=O)c1cc(C2CC2)on1` (racemic) [compound 275, (±)-cis-N-{1-[(2-chloro-phenyl)methyl]-4-methyl-pyrrolidin-3-yl}-5-cyclopropyl-1,2-oxazole-3-carboxamide] to `C[C@H]1CN(c2ccccc2Cl)C[C@H]1NC(=O)c1cc(C2CC2)on1` (racemic) [compound 301, (±)-cis-N-[1-(2-chloro-phenyl)-4-methyl-pyrrolidin-3-yl]-5-cyclo-propyl-1,2-oxazole-3-carboxamide], the IC50 rises from 3.02 µM to over 50 µM. The first is the more potent here.

First: C[C@H]1CN(CCO)C[C@H]1NC(=O)c1cc(C2CC2)on1 (racemic) [compound 276, (±)-cis-5-cyclopropyl-N-[1-(2-hydroxyethyl)-4-methylpyrrolidin-3-yl]-1,2-oxazole-3-carboxamide]
Second: C[C@H]1CN(CC(N)=O)C[C@H]1NC(=O)c1cc(C2CC2)on1 (racemic) [compound 303, (±)-cis-N-[1-(carbamoyl-methyl)-4-methyl-pyrrolidin-3-yl]-5-cyclo-propyl-1,2-oxazole-3-carboxamide]
The IC50 of the first is lower: 5.85 µM for the first, over 50 µM for the second. The first is the more potent here.

`C[C@@H]1CN(CC(=O)N(C)C)C[C@H]1NC(=O)c1cc(C2CC2)on1` (racemic) [compound 277, (±)-trans-5-cyclopropyl-N-{1-[(dimethyl-carbamoyl)methyl]-4-methylpyrrolidin-3-yl}-1,2-oxazole-3-carboxamide] and `CNC(=O)CN1C[C@@H](C)[C@H](NC(=O)c2cc(C3CC3)on2)C1` (racemic) [compound 286, (±)-trans-5-cyclopropyl-N-{4-methyl-1-[(methyl-carbamoyl)methyl]pyrrolidin-3-yl}-1,2-oxazole-3-carboxamide] cannot be ordered by IC50: over 50 µM for the first, over 50 µM for the second.

`CC(=O)Nc1ccc(N2C[C@H](C)[C@H](NC(=O)c3cc(C4CC4)on3)C2)cc1` (racemic) [compound 278, (±)-cis-5-cyclopropyl-N-[1-(4-acetamido-phenyl)-4-methylpyrrolidin-3-yl]-1,2-oxazole-3-carboxamide] and `COc1ccc(N2C[C@@H](C)[C@H](NC(=O)c3cc(C4CC4)on3)C2)cc1` (racemic) [compound 299, (±)-trans-5-cyclopropyl-N-[1-(4-methoxyphenyl)-4-methylpyrrolidin-3-yl]-1,2-oxazole-3-carboxamide] cannot be ordered by IC50: over 50 µM for the first, over 50 µM for the second.

`COc1ccccc1N1C[C@H](C)[C@H](NC(=O)c2cc(C3CC3)on2)C1` (racemic) [compound 279, (±)-cis-5-cyclopropyl-N-[1-(2-methoxyphenyl)-4-methylpyrrolidin-3-yl]-1,2-oxazole-3-carboxamide] and `CC(=O)Nc1ccccc1N1C[C@@H](C)[C@H](NC(=O)c2cc(C3CC3)on2)C1` (racemic) [compound 295, (±)-trans-5-cyclopropyl-N-[1-(2-acetamido-phenyl)-4-methylpyrrolidin-3-yl]-1,2-oxazole-3-carboxamide] cannot be ordered by IC50: over 50 µM for the first, over 50 µM for the second.

`COc1cccc(N2C[C@H](C)[C@H](NC(=O)c3cc(C4CC4)on3)C2)c1` (racemic) [compound 280, (±)-cis-5-cyclopropyl-N-[1-(3-methoxyphenyl)-4-methylpyrrolidin-3-yl]-1,2-oxazole-3-carboxamide] and `C[C@@H]1CN(c2cccc(Cl)c2)C[C@H]1NC(=O)c1cc(C2CC2)on1` (racemic) [compound 297, (±)-trans-N-[1-(3-chloro-phenyl)-4-methyl-pyrrolidin-3-yl]-5-cyclopropyl-1,2-oxazole-3-carboxamide] cannot be ordered by IC50: over 50 µM for the first, over 50 µM for the second.

Going from `CC(C)N1C[C@@H](C)[C@H](NC(=O)c2cc(C(F)F)on2)C1` (racemic) [compound 281, (±)-trans-5-(difluoro-methyl)-N-[4-methyl-1-(propan-2-yl)pyrrolidin-3-yl]-1,2-oxazole-3-carboxamide] to `CC(C)N1C[C@H](C)[C@H](NC(=O)c2cc(C(F)F)on2)C1` (racemic) [compound 300, (±)-cis-5-(difluoro-methyl)-N-[4-methyl-1-(propan-2-yl)pyrrolidin-3-yl]-1,2-oxazole-3-carboxamide], the IC50 falls from over 50 µM to 9.59 µM.

First: C[C@H]1CN(Cc2cc([N+](=O)[O-])ccc2F)C[C@H]1NC(=O)c1cc(C2CC2)on1 (racemic) [compound 282, (±)-cis-5-cyclopropyl-N-{1-[(2-fluoro-5-nitrophenyl)methyl]-4-methylpyrrolidin-3-yl}-1,2-oxazole-3-carboxamide]
Second: C[C@H]1CN(Cc2ccc(S(C)(=O)=O)cc2)C[C@H]1NC(=O)c1cc(C2CC2)on1 (racemic) [compound 290, (±)-cis-5-cyclopropyl-N-{1-[(4-methane-sulfonylphenyl)methyl]-4-methylpyrrolidin-3-yl}-1,2-oxazole-3-carboxamide]
The IC50 of the first is 2.5-fold higher: 26.7 µM for the first, 10.5 µM for the second.

`C[C@H]1CN(Cc2ccsc2)C[C@H]1NC(=O)c1cc(C2CC2)on1` (racemic) [compound 283, (±)-cis-5-cyclopropyl-N-[4-methyl-1-(thiophen-3-ylmethyl)pyrrolidin-3-yl]-1,2-oxazole-3-carboxamide] and `C[C@H]1CN(CCc2ccccc2)C[C@H]1NC(=O)c1cc(C2CC2)on1` (racemic) [compound 291, (±)-cis-5-cyclopropyl-N-[4-methyl-1-(2-phenylethyl)pyrrolidin-3-yl]-1,2-oxazole-3-carboxamide] are within 1.5-fold of each other in IC50: 1.85 µM for the first, 2.46 µM for the second.

Compared with `COc1ncc(CN2C[C@H](C)[C@H](NC(=O)c3cc(C4CC4)on3)C2)cc1Br` (racemic) [compound 284, (±)-cis-N-{1-[(5-bromo-6-methoxypyridin-3-yl)methyl]-4-methyl-pyrrolidin-3-yl}-5-cyclopropyl-1,2-oxazole-3-carboxamide], `C[C@@H]1CN(c2cnccn2)C[C@H]1NC(=O)c1cc(C2CC2)on1` (racemic) [compound 292, (±)-trans-5-cyclopropyl-N-[4-methyl-1-(pyrazin-2-yl)pyrrolidin-3-yl]-1,2-oxazole-3-carboxamide] is higher in IC50: 40.5 µM for the first, over 50 µM for the second.

`CNC(=O)CN1C[C@H](C)[C@H](NC(=O)c2cc(C3CC3)on2)C1` (racemic) [compound 287, (±)-cis-5-cyclopropyl-N-{4-methyl-1-[(methyl-carbamoyl)methyl]pyrrolidin-3-yl}-1,2-oxazole-3-carboxamide] and `C[C@@H]1CN(CC(=O)N2CCN(C)CC2)C[C@H]1NC(=O)c1cc(C2CC2)on1` (racemic) [compound 294, (±)-trans-5-cyclopropyl-N-{4-methyl-1-[2-(4-methylpiperazin-1-yl)-2-oxoethyl]pyrrolidin-3-yl}-1,2-oxazole-3-carboxamide] cannot be ordered by IC50: over 50 µM for the first, over 50 µM for the second.

Going from `C[C@H]1CN(Cc2c[nH]c(-c3ccccc3)n2)C[C@H]1NC(=O)c1cc(C2CC2)on1` (racemic) [compound 288, (±)-cis-5-cyclopropyl-N-{4-methyl-1-[(2-phenyl-1H-imidazol-4-yl)methyl]pyrrolidin-3-yl}-1,2-oxazole-3-carboxamide] to `C[C@H]1CN(c2cnccn2)C[C@H]1NC(=O)c1cc(C2CC2)on1` (racemic) [compound 302, (±)-cis-5-cyclopropyl-N-[4-methyl-1-(pyrazin-2-yl)pyrrolidin-3-yl]-1,2-oxazole-3-carboxamide], the IC50 rises from 21.1 µM to over 50 µM.

Compound `C[C@H]1CN(CC(=O)N2CCNCC2)C[C@H]1NC(=O)c1cc(C2CC2)on1` (racemic) [compound 304, (±)-cis-5-cyclopropyl-N-{4-methyl-1-[2-oxo-2-(piperazin-1-yl)ethyl]pyrrolidin-3-yl}-1,2-oxazole-3-carboxamide] has an IC50 of over 50 µM.
